# Source: patent US20200270309A1, “MALEIMIDE GROUP-MODIFIED ANGIOGENESIS INHIBITOR HM-1 AND USE THEREOF” (NANJING ANJI BIOLOGICAL TECHNOLOGY CO., LTD, priority 2017, published 2020)
# Peptide text beside a SMILES is read from it. * marks the point of attachment. X66 = O=C1C=CC(=O)N1c1cccc(CCCCCCCC(=O)*)c1
# Tested on: xylene-induced ear swelling
# Test: Xylene-induced mouse ear swelling
# Format: in vivo
# Conditions: Kunming mice, dose 2 mg/kg, injected once a day for 5 days
# Procedure: Kunming mice were taken, a normal saline group was taken as a blank control group, an aspirin group (200 mg/kg) was taken as a positive control group, and X1-X90 administration groups were taken as test groups. The mice were injected once a day for 5 consecutive days. The blank control group was given an equal volume of normal saline. One hour after the last administration, 0.05 mL of xylene was applied to both sides of the right ear of each mouse to cause inflammation, while no drug was applied to the left ear as a normal ear. Two hours later, the mice were put to death by dislocation. Two ears were cut along the auricle. Ear pieces were taken with a puncher and weighed, and the swelling degree and the swelling rate were calculated. Swelling degree=right ear piece weight-left ear piece weight, swelling rate=(swelling degree/left ear piece weight)*100%. Statistical t-test was conducted on the experimental results. *P<0.05 indicates significant difference, and **P<0.01 indicates extremely significant difference.
smiles,measurement,setting,value
C[C@H](NC(=O)CNC(=O)[C@H](CCCNC(=N)N)NC(=O)CCCCCCCc1cccc(N2C(=O)C=CC2=O)c1)C(=O)N[C@@H](CC(=O)O)C(=O)N[C@@H](CCCNC(=N)N)C(=O)N[C@@H](C)C(=O)NCC(=O)NCC(=O)NCC(=O)NCC(=O)N[C@@H](CCCNC(=N)N)C(=O)NCC(=O)N[C@@H](CC(=O)O)C(=O)O [X31] (X66-RGADRAGGGGRGD-OH),Swelling degree,right minus left ear piece weight 2 h after xylene,3.16 ± 0.55 mg
same,Inhibition rate (%),xylene-induced ear swelling,16.85%
